Measurements published in patent US20220184037A1, “PHARMACEUTICAL AGENTS TARGETING CANCER STEM CELLS” (THE JOHNS HOPKINS UNIVERSITY, priority 2020, published 2022).

Legend:
[1] = Body weight of treated mice; assay type: in vivo; details: mice treated with inhibitors compared with control
Method: For therapeutic efficacy, mice were randomly assigned into experimental groups (five mice per group) when tumors reached a volume of […]. For celecoxib and/or VP treatment, celecoxib (5 mg/kg) was administered via intraperitoneal (i.p.) injection once a day (17), and VP (50 mg/kg) was administered via i.p. every other day (18). EP4 antagonist ONO-AE3-208 (10 mg/kg) was administered via i.p. once a day (19). Control was applied with same volume (10 μL per injection) of 10% dimethyl sulphoxide in 1% TWEEN 80 (Sigma-Aldrich). For GEM and CDDP (GC) treatment (i.p.), CDDP (6 mg/kg) was only applied after the first GEM (60 mg/kg) treatment on day 2, followed by three consecutive treatments of GEM on day 5, 8 and 11 (17). The next cycle was started on day 18, and the treatment was continued until tumor reached 2 cm in diameter. For erlotinib treatment, the mice were treated once a day, 6 days per week, by oral gavage with erlotinib (100 mg/kg) or control (PBS containing 0.5% methyl cellulose (Sigma-Aldrich) and 0.1% TWEEN 80) (20). Tumor size was measured at least every three days. Therapeutic efficacy was assessed using percentage change after treatment related to tumor size before treatment. […]

[2] = system: bladder cancer cells (urothelial CSCs); experiment: Sphere formation assay; assay type: cell-based, human
Method: Sphere formation was induced by culturing cells (2×10^4/well) in […] F12 50/50 Mix (Mediatech) supplemented with B-27 (Life Technologies), 20 ng/mL FGF-basic (Peprotech), 20 ng/mL EGF (Peprotech). Cell culture was performed in ultra-low attachment 6 well plates (Corning, Lowell, USA) for 10 days. The medium was replaced every other day. Sphere formation was evaluated using the inverted phase-contrast microscope, and single sphere with a diameter larger than 100 gm was counted using NIS-Elements Microscope Imaging Software. To redifferentiate spheres, spheres were plated in standard growth medium with 10% FBS in dishes supporting cell attachment, and incubated for 7 days. For self-renewal assay, primary spheres were collected by gentle centrifugation (5 min at 400×g), dissociated with Stempro Accutase Cell Dissociation Reagent (Life Technologies), and mechanically disrupted with a pipette. The cell suspension was sieved through 40 μm cell strainer cap filter to achieve a single-cell suspension, and then equal numbers of alive cells were plated in ultralow attachment plates to generate the second spheres. Again, spheres were counted on day 14 and digested to generate the third Spheres. All the experiments were performed in triplicate and repeated at least three times.

SOX2 = experiment: Western blotting / flow cytometry of SOX2 expression in bladder cancer cells; assay type: cell-based, human
Method: (§1) Whole cell lysates were extracted using RIPA buffer (Thermo Scientific) supplemented with 10 μL/mL Halt™ Protease Inhibitor Cocktail Kit (Life Technologies) and 30 μL/mL Halt™ Phosphatase Inhibitor Cocktail Kit (Life Technologies). The protein concentrations were determined using a Pierce™ BCA Protein Assay Kit (Life Technologies), and the protein were separated on. NuPAGE 4-12% Bis-Tris Gel (Life Technologies) according to the manufacturer's protocol. COX2 (D5H5), NANOG (D73G4), OCT4 (D7O5Z), CD133 (A3G6K), Snail (C15D3), ZEBI (D80D3), Vimentin (D21H3), CDH2 (D4R1H), CDH1 (24E10), p-EGFR (D7A5), EGFR (D38B1), p-AKT (D9E), AKT (cat #, 9272), p-ERK (D13.14.4E), ERK (137F5), p-YAP1 (D9W2I), p-Src (cat #, 2101), Src (36D10), DNMT1 (D63A6), DNMT3A (D23G1), and DNMT3B (D7070) antibodies were obtained from Cell Signaling Technology (Danvers, Mass., USA), except for SOX2 (EPR3131; Abeam, Cambridge, USA), YAP1 (ab52771; Abeam), CD24 (cat #, AF5247-SP; R&D Systems, Minneapolis USA) and β-actin (A2228; Sigma-Aldrich). Secondary horseradish peroxidase (HRP)-conjugated antibodies were obtained from Cell Signaling Technology, and chemiluminescent detection of HRP-labeled antibodies was performed using Amersham ECL Prime Western Blotting Detection Reagent (GE Healthcare, Piscataway, USA). As loading control, β-actin was used.
For extracellular staining, cells (1×10^6/100 μL stain buffer) were incubated with PE-Vio770-conjugated anti-human CD133 (293C3; Miltenyi Biotec, Auburn, USA) or PE-conjugated anti-human CD24 antibody (cat #, 560991; BD Biosciences) for 30 min at 4° C. in dark. PE-Vio770-conjugated anti-IgG1κ Isotype (cat #, 130-098-563; Miltenyi Biotec) and PE-conjugated IgG2a, κ Isotype (cat #, 555574; BD Biosciences) were used as control for CD133 and CD24 staining, respectively. Staining for intracellular SOX2 was carried out using the BD Cytofix/Cytopem Fixation/Permeabilization Kit (BD Biosciences) according to manufacturer's protocol. The cells were incubated with Alexa Fluor 647-conjugated anti-SOX2 antibody (cat #, 560302; BD Biosciences) for 40 min at 4° C. in dark. Alexa Fluor 647-conjugated anti-IgG2a, κ Isotype (cat #, 558053; BD Biosciences) was used as control. Data were acquired on a BD FACSCalibur flow cytometer (BD Biosciences) using BD CellQuest Pro software (BD Biosciences) and analyzed with FlowJo software v10.1 (Tree Star, Ashland, USA).

[3] = system: promoters of miR-126, miR-296 and miR-200c; experiment: Bisulfite sequencing of miRNA promoter methylation; assay type: cell-based, human; details: spheroid cells
Method: Cell pellets were digested with 1% sodium dodecyl sulfate and 50 μg/mL proteinase K (Roche, Nutley, USA) at 48° C. overnight. Isolation of genomic DNA from cell lines was performed with the phenol-chloroform extraction protocol followed by ethanol precipitation. Bisulfite treatment was conducted using an EpiTect Bisulfite K ft (QIAGEN, Valencia, USA), and was subsequently amplified via PCR using primers as shown in the following table. PCR products were purified using the QIAquick Gel Extraction kit (Qiagen), and sequenced by Genewiz DNA sequencing service (Genewiz, South Plainfield, USA). The data were analyzed using the Sequence Scanner v1.0 software (Life technologies). A methylation frequency of ≥50% of total CpG sites within the amplified region was considered “methylation-positive”.

YAP1 = experiment: Western blotting of YAP1 expression in bladder cancer cells; assay type: cell-based, human
Method: as §1

[4] = system: AKT and extracellular signal-related kinase (ERK); experiment: Western blotting of AKT and ERK activation; assay type: cell-based, human; details: basal-type cells, erlotinib
Method: as §1

COX2 = experiment: Western blotting of COX2 expression in bladder cancer cells; assay type: cell-based, human
Method: as §1

[5] = basal-type cells, 1 μM erlotinib
[6] = non-basal-type cells, erlotinib

Compound | body weight loss [1] | sphere-forming ability / sphere formation ([2]; COX2 inhibitor or EP4 antagonist alone) | erlotinib-increased sphere formation ([2]; basal-type cells, COX2 inhibitor added to erlotinib (10 μM celecoxib, 72 hours)) | SOX2 expression (SOX2; COX2 inhibitor or EP4 antagonist alone (FIG. 2A-B, S7)) | erlotinib-increased SOX2 expression (SOX2; basal-type cells, COX2 inhibitor added to erlotinib) | promoter methylation of miR-126, miR-296, miR-200c [3] | induction of YAP1 expression (YAP1; COX2 inhibitor added to erlotinib) | activation of AKT and ERK [4] | COX2 expression (COX2; [5]) | levels of COX2 expression (COX2; [6]) | number of spheres ([2]; basal-type cells, 1 μM erlotinib for 72 hours) | level of SOX2 expression over time (SOX2; [5]) | YAP1 expression (YAP1; [5]) | levels of YAP1 expression (YAP1; [6])
Cc1ccc(-c2cc(C(F)(F)F)nn2-c2ccc(S(N)(=O)=O)cc2)cc1 [celecoxib, Celecoxib] | did not observe body weight loss | repressed | impaired | SOX2 downregulation | impaired | demethylated | no longer able to induce YAP1 expression | – | – | – | – | – | – | –
C#Cc1cccc(Nc2ncnc3cc(OCCOC)c(OCCOC)cc23)c1 [erlotinib, Erlotinib] | – | – | – | – | – | – | – | suppressed activation | increased COX2 expression | did not affect | enriched number of spheres | decreased at 1 hour after treatment with erlotinib and then gradually increased | continuously decreased YAP1 expression | did not affect
